Like-named read-outs stand apart in the source and are kept apart here.
Legend:
[1] = tested on: Sommerweizen Sorte Moskovskaya 35; assay: Field trial of gametocidal activity, spring wheat; type: in vivo, Weizen; settings: 1% aqueous emulsion; for Anzahl von Körnern der Ähre bei freier Bestäubung / Anzahl von Körnern der Ähre im Isolator / percent sterility at 10000 g/ha / response vs control in vivo at 10000 g/ha: 10 kg/ha; for Anzahl von Körnern der Ähre bei freier Bestäubung / Anzahl von Körnern der Ähre im Isolator / percent sterility at 10000 g/ha: V. period; for percent sterility at 10000 g/ha: read-out: Prozentsatz der Sterilität; for response vs control in vivo / response vs control in vivo at 10000 g/ha: control = 100, read-out: Prozentsatz des Ansetzens bei freier Bestäubung
[2] = tested on: Diploider Roggen Sorte Gibrid 1864/74; assay: Field trial of gametocidal activity, diploid rye Gibrid 1864/74; settings: 1% aqueous emulsion, 10 kg/ha; for Anzahl von Körnern der Ähre bei freier Bestäubung / Anzahl von Körnern der Ähre im Isolator / Prozentsatz der Sterilität: V. period; for Prozentsatz des Ansetzens bei freier Bestäubung: control = 100
in vivo = settings: mouse
[3] = tested on: Winterweizens Sorte Mironovskaya 808; assay: Field trial of gametocidal activity (anther sterilisation), winter wheat; type: in vivo, Weizen; settings: 2% aqueous emulsion, 20 kg/ha; for response vs control in vivo at 20000 g/ha: control = 100, read-out: Prozentsatz des Ansetzens bei freier Bestäubung
[4] = tested on: Diploider Roggen Sorte Chulpan; assay: Field trial of gametocidal activity, diploid rye Chulpan; type: in vivo
Text: (§1) Bei Weizen und Tritikale werden Einzelisolatoren verwendet.
Pflanzen von diploidem Roggen Sorte Chulpan werden in der V. oder VI.
Der Verbrauch an Sterilisationsmitteln beträgt 10 kg/ha.

[5] = tested on: Hirse Sorte K-9693 Kormovoe 1; assay: Field trial of gametocidal activity, millet K-9693 Kormovoe 1; settings: 1% aqueous emulsion, 10 kg/ha
[6] = tested on: Tetraploider Roggen Sorte Belta; assay: Field trial of gametocidal activity, tetraploid rye Belta; type: in vivo; settings: 1% aqueous emulsion, 10 kg/ha; for response vs control in vivo at 10000 g/ha: control = 100, read-out: Prozentsatz des Ansetzens bei freier Bestäubung
Tritikale Sorte PRAG I09 = assay: Field trial of gametocidal activity, triticale; type: in vivo; settings: 1% aqueous emulsion, 12 kg/ha; for Anzahl von Körnern der Ähre bei freier Bestäubung / Anzahl von Körnern der Ähre im Isolator / Prozentsatz der Sterilität: V. and VI. period; for Prozentsatz des Ansetzens bei freier Bestäubung: control = 100
Text: as §1
Pflanzen von Tritikale Sorte PRAG I09 werden in der V. und VI.
Der Verbrauch an Sterilisationsmittel beträgt 12 kg/ha.

[7] = tested on: Hirse Sorte Mironovskoe 94; assay: Field trial of gametocidal activity, millet Mironovskoe 94; type: in vivo; settings: 1% aqueous emulsion, 10 kg/ha; for percent pollen sterility at 10000 g/ha: read-out: Prozentsatz der Sterilität; for response vs control in vivo at 10000 g/ha: control = 100, read-out: Prozentsatz des Ansetzens bei freier Bestäubung
[8] = tested on: Tetraploider Roggen Sorte Ukrainskaya tetra; assay: Field trial of gametocidal activity, tetraploid rye Ukrainskaya tetra; type: in vivo; settings: 1% aqueous emulsion, 10 kg/ha; for Prozentsatz der Sterilität / Anzahl von Körnern der Ähre bei freier Bestäubung / Anzahl von Körnern der Ähre im Isolator: V. or VI. period; for Prozentsatz des Ansetzens bei freier Bestäubung: control = 100
[9] = tested on: Tetraploider Roggen Sorte Gibrid 67; assay: Field trial of gametocidal activity, tetraploid rye Gibrid 67; type: in vivo; settings: 1% aqueous emulsion, 10 kg/ha, V. or VI. period
Text: as §1
Pflanzen von tetraploidem Roggen Sorte Gibrid 67 werden in der V. oder VI.

Roggen Sorte Voskhod 2 = assay: Field trial of gametocidal activity, diploid rye Voskhod 2; type: in vivo; settings: 1% aqueous emulsion, 8 kg/ha
[10] = tested on: Tetraploider Roggen Sorte Jubileinaya; assay: Field trial of gametocidal activity, tetraploid rye Jubileinaya; settings: 1% aqueous emulsion, 10 kg/ha; for Prozentsatz des Ansetzens bei freier Bestäubung: control = 100
[11] = tested on: Diploider Roggen Sorte Gibrid 340/65; assay: Field trial of gametocidal activity, diploid rye Gibrid 340/65; settings: Gibrid 340/65 (text: 312/65), 1% aqueous emulsion, 10 kg/ha
[12] = tested on: Diploider Roggen Sorte Kharkovskaya 55; assay: Field trial of gametocidal activity, diploid rye Kharkovskaya 55; settings: 1% aqueous emulsion, 6 kg/ha
[13] = tested on: Sonnenblume Sorte Peredovik; assay: Field trial of pollen sterilisation, sunflower Peredovik; type: in vivo; settings: 0,2% aqueous emulsion, 1,2 kg/ke (so in the source)
Text: Pflanzen der Sonnenblume Sorte Peredovik werden in der V. oder VI.
Der Verbrauch an Sterilisationsmittel beträgt 1,2 kg/ke.

Sonnenblume Linie VK 119 = assay: Field trial of pollen sterilisation, sunflower line VK 119; settings: 0,2% aqueous emulsion, 1,2 kg/ha
[14] = V. or VI. period of organogenesis
[15] = Chulpan, single compounds, 1% aqueous emulsion, 10 kg/ha, V. or VI. period
[16] = Chulpan, single compounds, 1% aqueous emulsion, 10 kg/ha, V. or VI. period, read-out: Prozentsatz der Sterilität
[17] = read-out: Prozentsatz des Ansetzens bei freier Bestäubung, Chulpan, single compounds, 1% aqueous emulsion, 10 kg/ha, control = 100

## OCC(O)COc1ccc(F)cc1 (stereo not drawn) [Beispiel 4]
[1]
  Anzahl von Körnern der Ähre bei freier Bestäubung: 25,9
  Anzahl von Körnern der Ähre im Isolator: 0,4
  percent sterility at 10000 g/ha: 98.6%
  response vs control in vivo: 94.2%
[2]
  Anzahl von Körnern der Ähre bei freier Bestäubung: 42,8
  Anzahl von Körnern der Ähre im Isolator: 0,0
  Prozentsatz der Sterilität: 100%
  Prozentsatz des Ansetzens bei freier Bestäubung: 88,2%
In vivo; LD50, weisse Mäuse
  LD50: 400 to 600 mg/kg
[3]; [14]
  Anzahl von Körnern der Ähre bei freier Bestäubung: 30,6
  Anzahl von Körnern der Ähre im Isolator: 0,0
[3]
  response vs control in vivo at 20000 g/ha: 75.4%

## OCCOc1ccc(F)cc1 [Beispiel 2]
[2]
  Anzahl von Körnern der Ähre bei freier Bestäubung: 42,0
  Anzahl von Körnern der Ähre im Isolator: 0,0
  Prozentsatz der Sterilität: 100%
  Prozentsatz des Ansetzens bei freier Bestäubung: 87,9%
[4]; [15]
  Anzahl von Körnern der Ähre bei freier Bestäubung: 48,2
  Anzahl von Körnern der Ähre im Isolator: 0,0
[4]; [16]
  percent sterility at 10000 g/ha: 100%
[4]; [17]
  response vs control in vivo at 10000 g/ha: 85%
In vivo; LD50, weisse Mäuse
  LD50: 350 mg/kg
[5]; V. or VI. period
  Anzahl von Körnern der Rispe bei freier Bestäubung: 128,7
  Anzahl von Körnern der Rispe im Isolator: 0,0
  Prozentsatz der Sterilität: 100%
[5]; control = 100
  Prozentsatz des Ansetzens bei freier Bestäubung: 87,7%
[6]; V. or VI. period
  Anzahl von Körnern der Ähre im Isolator: 0,0
[6]
  response vs control in vivo at 10000 g/ha: 92.8%
Tritikale Sorte PRAG I09
  Anzahl von Körnern der Ähre bei freier Bestäubung: 62,3
  Anzahl von Körnern der Ähre im Isolator: 0,0
  Prozentsatz des Ansetzens bei freier Bestäubung: 90,3%
[3]; [14]
  Anzahl von Körnern der Ähre bei freier Bestäubung: 27,4
  Anzahl von Körnern der Ähre im Isolator: 0,0
[3]
  response vs control in vivo at 20000 g/ha: 67.7%
[7]; V. or VI. period
  Anzahl von Körnern der Rispe bei freier Bestäubung: 311,4
  Anzahl von Körnern der Rispe im Isolator: 0,0
  percent pollen sterility at 10000 g/ha: 100%
[7]
  response vs control in vivo at 10000 g/ha: 82%

## O=C(O)c1cc(Br)ccc1O [Beispiel 18, Äthanolaminsalz der 5-Bromsalizylsäure]
[1]
  Anzahl von Körnern der Ähre bei freier Bestäubung: 27,9
  Anzahl von Körnern der Ähre im Isolator: 1,8
  percent sterility at 10000 g/ha: 93.4%
  response vs control in vivo at 10000 g/ha: 102%
[7]; V. or VI. period
  Anzahl von Körnern der Rispe bei freier Bestäubung: 320,7
  Anzahl von Körnern der Rispe im Isolator: 0,0
  percent pollen sterility at 10000 g/ha: 100%
[7]
  response vs control in vivo at 10000 g/ha: 84.5%
[8]
  Prozentsatz der Sterilität: 99,8%
  Prozentsatz des Ansetzens bei freier Bestäubung: 94,7%

## O=C(O)c1ccccc1O [Beispiel 62, Äthanolaminsalz der Salizylsäure]
[9]
  Anzahl von Körnern der Ähre bei freier Bestäubung: 40,8
  Anzahl von Körnern der Ähre im Isolator: 0,0

## OCC(O)COc1ccccc1F (stereo not drawn) [Beispiel 21, 3-(2'-Fluorophenoxy)-propandiol-1,2]
Roggen Sorte Voskhod 2; V. or VI. period
  Anzahl von Körnern der Ähre bei freier Bestäubung: 46,8
  Anzahl von Körnern der Ähre im Isolator: 0,3
  Prozentsatz der Sterilität: 99,4%
Roggen Sorte Voskhod 2; control = 100
  Prozentsatz des Ansetzens bei freier Bestäubung: 85,7%
[1]
  Anzahl von Körnern der Ähre bei freier Bestäubung: 26,2
  Anzahl von Körnern der Ähre im Isolator: 0,1
  percent sterility at 10000 g/ha: 99.9%
  response vs control in vivo at 10000 g/ha: 95.3%
[6]; V. or VI. period
  Anzahl von Körnern der Ähre bei freier Bestäubung: 40,7
  Anzahl von Körnern der Ähre im Isolator: 0,0
[10]; V. or VI. period
  Anzahl von Körnern der Ähre im Isolator: 0,0
[10]
  Prozentsatz des Ansetzens bei freier Bestäubung: 97,5%
[7]; V. or VI. period
  Anzahl von Körnern der Rispe bei freier Bestäubung: 307,5
  Anzahl von Körnern der Rispe im Isolator: 0,0
  percent pollen sterility at 10000 g/ha: 100%
[7]
  response vs control in vivo at 10000 g/ha: 81%

## CCC(CO)(CO)CO [Beispiel 39, Etriol]
[11]; V. and VI. periods
  Anzahl von Körnern der Ähre bei freier Bestäubung: 53,2
  Anzahl von Körnern der Ähre im Isolator: 1,6
  Prozentsatz der Sterilität: 96,7%
[11]; control = 100
  Prozentsatz des Ansetzens bei freier Bestäubung: 98,5%
Tritikale Sorte PRAG I09
  Anzahl von Körnern der Ähre bei freier Bestäubung: 68,2
  Anzahl von Körnern der Ähre im Isolator: 0,7
  Prozentsatz der Sterilität: 99,0%
  Prozentsatz des Ansetzens bei freier Bestäubung: 98,8%
[7]; V. or VI. period
  Anzahl von Körnern der Rispe bei freier Bestäubung: 355,1
  Anzahl von Körnern der Rispe im Isolator: 0,0
  percent pollen sterility at 10000 g/ha: 100%
[7]
  response vs control in vivo at 10000 g/ha: 93.6%

## O=C(O)c1ccccc1 [Beispiel 31, Äthanolaminsalz der Benzoesäure]
[12]; V. and VI. periods
  Anzahl von Körnern der Ähre bei freier Bestäubung: 43,7
  Anzahl von Körnern der Ähre im Isolator: 0,9
  Prozentsatz der Sterilität: 97,9%
[12]; control = 100
  Prozentsatz des Ansetzens bei freier Bestäubung: 96,9%
In vivo
  LD50: 4100 mg/kg
[8]
  Anzahl von Körnern der Ähre bei freier Bestäubung: 44,0
  Anzahl von Körnern der Ähre im Isolator: 0,8
  Prozentsatz der Sterilität: 98,2%
  Prozentsatz des Ansetzens bei freier Bestäubung: 99,5%

## OCC(O)COc1ccc(Cl)cc1 (stereo not drawn) [Beispiel 3, 3-(4'-Chlorphenoxy)-propandiol-1,2]
[13]
  Pollensterilität in %: 100%
[13]; V. or VI. period
  Ansetzen von Achänen bei freier Bestäubung in %: 81,7%
  Ansetzen von Achänen im Isolator bei der Bestäubung mit dem Pollengemisch in %: 0,0%
[1]
  Anzahl von Körnern der Ähre bei freier Bestäubung: 25,8
  Anzahl von Körnern der Ähre im Isolator: 0,0
  percent sterility at 10000 g/ha: 100%
  response vs control in vivo: 93.8%
[4]; [15]
  Anzahl von Körnern der Ähre bei freier Bestäubung: 47,2
  Anzahl von Körnern der Ähre im Isolator: 0,0
[4]; [16]
  percent sterility at 10000 g/ha: 100%
[4]; [17]
  response vs control in vivo at 10000 g/ha: 83.2%
Sonnenblume Linie VK 119
  Ansetzen von Achänen bei freier Bestäubung in %: 84,4%
  Ansetzen von Achänen im Isolator bei der Bestäubung mit dem Pollengemisch in %: 0,0%
  Pollensterilität in %: 100%
Tritikale Sorte PRAG I09
  Anzahl von Körnern der Ähre im Isolator: 0,0
  Prozentsatz des Ansetzens bei freier Bestäubung: 89,0%
[3]; [14]
  Anzahl von Körnern der Ähre bei freier Bestäubung: 28,6
  Anzahl von Körnern der Ähre im Isolator: 0,6
[3]; V. or VI. period of organogenesis, read-out: Prozentsatz der Sterilität
  percent sterility at 20000 g/ha: 98.4%
[3]
  response vs control in vivo at 20000 g/ha: 70.6%
[7]; V. or VI. period
  Anzahl von Körnern der Rispe bei freier Bestäubung: 284,7
  Anzahl von Körnern der Rispe im Isolator: 0,0
  percent pollen sterility at 10000 g/ha: 100%
[7]
  response vs control in vivo at 10000 g/ha: 75%
[8]
  Anzahl von Körnern der Ähre bei freier Bestäubung: 40,7
  Anzahl von Körnern der Ähre im Isolator: 0,0

## O=C(O)c1ccccc1C(=O)O [Beispiel 55, Phthalsäuremonoäthanolaminsalz]
[4]; [15]
  Anzahl von Körnern der Ähre bei freier Bestäubung: 55,6
  Anzahl von Körnern der Ähre im Isolator: 3,1
[4]; read-out: Prozentsatz der Sterilität
  pest or weed control at 10000 g/ha: 94%
[4]; read-out: Prozentsatz des Ansetzens bei freier Bestäubung
  response vs control in vivo at 10000 g/ha: 98.1%
In vivo
  LD50: 1100 mg/kg
[6]; V. or VI. period
  Anzahl von Körnern der Ähre bei freier Bestäubung: 44,0
  Anzahl von Körnern der Ähre im Isolator: 0,3
[6]; V. or VI. period, read-out: Prozentsatz der Sterilität
  percent sterility at 10000 g/ha: 99.3%
[6]
  response vs control in vivo at 10000 g/ha: 99.3%
[10]; V. or VI. period
  Anzahl von Körnern der Ähre bei freier Bestäubung: 46,0
  Anzahl von Körnern der Ähre im Isolator: 0,0
[10]
  Prozentsatz des Ansetzens bei freier Bestäubung: 95,0%
[7]; V. or VI. period
  Anzahl von Körnern der Rispe bei freier Bestäubung: 350,9
  Anzahl von Körnern der Rispe im Isolator: 0,0
  percent pollen sterility at 10000 g/ha: 100%
[7]
  response vs control in vivo at 10000 g/ha: 92.5%

## NCCO.O=CO [Beispiel 48, Monoäthanolaminsalz der Ameisensäure]
[4]; [15]
  Anzahl von Körnern der Ähre bei freier Bestäubung: 55,2
  Anzahl von Körnern der Ähre im Isolator: 1,2
  Prozentsatz der Sterilität: 97,7%
[4]; Chulpan, single compounds, 1% aqueous emulsion, 10 kg/ha, control = 100
  Prozentsatz des Ansetzens bei freier Bestäubung: 97,4%
Tritikale Sorte PRAG I09
  Prozentsatz der Sterilität: 99,9%
  Prozentsatz des Ansetzens bei freier Bestäubung: 92,9%
[7]; V. or VI. period
  Anzahl von Körnern der Rispe bei freier Bestäubung: 352,2
  Anzahl von Körnern der Rispe im Isolator: 0,0
  Prozentsatz der Sterilität: 100%
[7]; control = 100
  Prozentsatz des Ansetzens bei freier Bestäubung: 92,8%

— patent EP0359821A1, “METHOD OF STERILIZING PLANT ANTHERS” (priority 1988, dated 1989)
